# Where two headings read alike, the source gives them in different places.
# Key:
# CCK-B = target: T1, CCK-B (Rattus norvegicus, UniProt P30553); experiment: Central receptor (CCK-B) binding experiment, [^3 H]-CCK-8 binding inhibition; details: rat cerebrum homogenate, 0.2 nM [^3 H]-CCK-8, 60 minutes at 25° C
# T1 construct: CCK-B receptors originating in the cell membrane of rat brain cells; from tissue; host or cells: rat cerebrum membranes (male rats, Japan Laboratory Animals)
# T1 sequence (P30553 1-452): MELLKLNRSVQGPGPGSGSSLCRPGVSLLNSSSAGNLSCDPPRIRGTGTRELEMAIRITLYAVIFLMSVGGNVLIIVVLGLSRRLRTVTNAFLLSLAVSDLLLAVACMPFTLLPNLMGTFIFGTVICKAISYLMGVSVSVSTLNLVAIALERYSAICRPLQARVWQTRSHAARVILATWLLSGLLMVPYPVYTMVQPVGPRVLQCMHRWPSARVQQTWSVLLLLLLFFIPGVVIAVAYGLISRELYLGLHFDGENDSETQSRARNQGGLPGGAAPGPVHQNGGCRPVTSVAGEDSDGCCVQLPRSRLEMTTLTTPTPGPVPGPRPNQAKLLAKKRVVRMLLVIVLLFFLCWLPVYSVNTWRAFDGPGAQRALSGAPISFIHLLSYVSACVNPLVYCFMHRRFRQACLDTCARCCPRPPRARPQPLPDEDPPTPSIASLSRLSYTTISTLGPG
# Description: (§1) Peripheral Receptor (CCK-A) and Central Receptor (CCK-B) Binding Experiment
# (§2) The pancreas and cerebrum of male rats (Japan Laboratory Animals), which were sacrificed by decapitation and having body weights of 250-300 g, were extracted and immersed in cold Hepes buffer. After suspending these tissues using a Potter homogenizer, the suspension was centrifuged for 10 minutes at 48,000×g. The resulting residue was again suspended by addition of cold Hepes buffer and centrifuged for 10 minutes at 48,000×g. The resulting residue was transferred to cold incubation buffer.
# (§3) A 1 ml aliquot of the homogenate was incubated for 60 minutes at 25° C. in the presence of 0.2 nM [^3 H]-CCK-8 and the test compound, in the presence of vehicle only (for measurement of 100% binding), or in the presence of 1 μM cold CCK-8 (for measurement of non-specific binding). Next, the reaction solution was promptly suction filtered using a Whatman glass GF/B filter immersed in Hepes buffer followed by washing the filter with cold Hepes buffer. Next, the glass filter was placed in Aquasol-2 followed by assay of radioactivity with a liquid scintillation counter.
# (§4) The compound numbers shown in Table 3 indicate the target compounds according to the number of the embodiment.
# CCK-A = target: T2, CCK-A (Rattus norvegicus, UniProt P30551); experiment: Peripheral receptor (CCK-A) binding experiment, [^3 H]-CCK-8 binding inhibition; details: for CCK-B/CCK-A: ratio of IC50 values CCK-B/CCK-A (selectivity for CCK-A), 60 min
# T2 construct: CCK-A receptors prepared from the cell membranes of rat pancreas; from tissue; host or cells: rat pancreas membranes (male rats, Japan Laboratory Animals)
# T2 sequence (P30551 1-444): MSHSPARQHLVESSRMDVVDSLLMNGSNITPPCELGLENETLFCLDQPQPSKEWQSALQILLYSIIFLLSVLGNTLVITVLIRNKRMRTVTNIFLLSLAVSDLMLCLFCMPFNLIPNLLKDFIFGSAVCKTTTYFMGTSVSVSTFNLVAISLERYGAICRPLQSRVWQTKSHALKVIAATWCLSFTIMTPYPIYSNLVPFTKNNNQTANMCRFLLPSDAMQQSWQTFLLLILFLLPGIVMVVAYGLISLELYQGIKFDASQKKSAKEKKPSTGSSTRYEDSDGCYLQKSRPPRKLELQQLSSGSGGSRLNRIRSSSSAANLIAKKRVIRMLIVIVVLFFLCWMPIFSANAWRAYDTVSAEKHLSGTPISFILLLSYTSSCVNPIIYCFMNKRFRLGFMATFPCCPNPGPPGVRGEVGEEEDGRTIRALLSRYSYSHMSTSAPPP
# Description: as §1, §2, §3, §4
# [1] = system: extracted guinea pig ileum; experiment: Anti-CCK action in extracted guinea pig ileum (inhibition of CCK-8-induced contraction, Magnus tube); parameters: species or system guinea pig (Hartley strain, male); details: Cavia porcellus
# Description: Anti-cholecystokinin (CCK) Action in Extracted Guinea Pig Ileum After sacrificing a male guinea pig (Hartley strain) by striking and exsanguination, a piece of extracted ileum was suspended from a Magnus tube, while applying tension of 0.5 g, containing 30 ml of Tyrode's solution (NaCl 136.9 mM, KCl 2.68 mM, CaCl2 1.8 mM, MgCl2 1.05 mM, NaH2 PO4 0.42 mM, NaHCO3 11.9 mM and glucose 5.55 mM) and ventilated with mixed O2 gas containing 5% CO2 at 37° C. Changes in contraction were recorded on smoked paper for isotonicity via a bevel. The piece of ileum was allowed to stand undisturbed for 30 minutes and then contracted by addition 1×10^-8 M CCK-8. After washing, this was repeated several times. After the contraction by CCK-8 had stabilized, the test compound was added. Contraction resulting from addition of 1×10^-8 M CCK was then measured 5 minutes later. The contraction caused by CCK-8 and the contraction caused by CCK-8 in the presence of the test compound at varying concentrations were compared, and the resulting IC50 values (concentration of test substance at which contraction caused by CCK-8 is inhibited by 50%) are shown in Table 2. The compound numbers shown in Table 2 indicate the target compounds according to the numbers of the embodiments.
# [2] = rat pancreas homogenate, 0.2 nM [^3 H]-CCK-8, 60 minutes at 25° C, read-out: CCK-A IC50
# [3] = contraction by 1×10^-8 M CCK-8, test compound added 5 minutes before, extracted ileum, 37° C, read-out: Active IC50
Compound,IC50 (CCK-B) [nM],"IC50 (CCK-A; rat pancreas cell membranes, read-out: activity in binding experiment on CCK-A receptors prepared from the cell membranes of rat pancreas) [nM]",IC50 (CCK-A; [2]) [nM],CCK-B/CCK-A (CCK-A),"IC50 [1, 3] [nM]","IC50 ([1]; extracted guinea pig ileum, read-out: IC50 with respect to the extracted guinea pig ileum (in vitro)) [nM]"
"O=C(N[C@@H](CSc1ncccc1C(=O)O)C(=O)N1CCN(C(c2ccccc2)c2ccccc2)CC1)c1cc2cc(O)ccc2[nH]1 [Compound 12-2, (R)-1-[3-(3-carboxypyridin-2-yl)thio-2-(5-hydroxyindol-2-yl)carbonylamino]propionyl-4-diphenylmethylpiperazine]",42000,5,5,8400,27,
"CCCCC(CCCC)N1CCN(C(=O)[C@H](CSc2ncccc2C(=O)O)NC(=O)c2cc3ccccc3[nH]2)CC1 [Compound 14-5, (R)-1-[3-(3-carboxypyridin-2-yl)thio-2-(indol-2-yl)carbonylamino]propionyl-4-(1-butylpentyl)piperazine]",100000,,170,588,260,
"CC(C)C(C(C)C)N1CCN(C(=O)[C@H](CSc2ncccc2C(=O)O)NC(=O)c2cc3ccccc3[nH]2)CC1 [Compound 15-4, (R)-1-[3-(3-carboxypyridin-2-yl)thio-2-(indol-2-yl)carbonylamino]propionyl-4-diisopropylmethylpiperazine]",8800,,30,293,120,
"O=C(N[C@@H](CSc1nccnc1C(=O)O)C(=O)N1CCN(C(c2ccccc2)c2ccccc2)CC1)c1cc2ccccc2[nH]1 [Compound 17-3, (R)-1-[3-(3-carboxypyrazin-2-yl)thio-2-(indol-2-yl)carbonylamino)propionyl-4-diphenylmethylpiperazine]",13000,,560,23,7.2,7.2
"O=C(N[C@@H](CSc1ncccc1P(=O)(O)O)C(=O)N1CCN(C(c2ccccc2)c2ccccc2)CC1)c1cc2ccccc2[nH]1 [Compound 22-4, (R)-4-diphenylmethyl-1-[3-(3-phosphonopyridin-2-yl)thio-2-(indol-2-yl)carbonylamino]propionylpiperazine]",56000,,20,2800,36,
"O=C(N[C@@H](CCn1nncc1C(=O)O)C(=O)N1CCN(C(c2ccccc2)c2ccccc2)CC1)c1cc2ccccc2[nH]1 [Compound 24-3, (S)-1-[4-(5-carboxy-1,2,3-triazol-1-yl)-2-(indol-2-yl)carbonylamino]butyryl-4-diphenylmethylpiperazine]",69000,,37,1865,120,
"O=C(N[C@@H](CCc1ocnc1C(=O)O)C(=O)N1CCN(C(c2ccccc2)c2ccccc2)CC1)c1cc2ccccc2[nH]1 [Compound 26-5, (S)-1-[4-(4-carboxyoxazol-5-yl)-2-(indol-2-yl)carbonylamino]butyryl-4-diphenylmethylpiperazine]",10000,,16,625,17,
"O=C(N[C@@H](Cc1ocnc1C(=O)O)C(=O)N1CCN(C(c2ccccc2)c2ccccc2)CC1)c1cc2ccccc2[nH]1 [Compound 27-5, (S)-1-[3-(4-carboxyoxazol-5-yl)-2-(indol-2-yl)carbonylamino]propionyl-4-diphenylmethylpiperazine]",9600,,180,53,190,

# From patent US5716958A, “Amino acid derivative having anti-CCK activity” (Tobishi Pharmaceutical Co., Ltd., priority 1994, dated 1998)
